# From paper PMC7587979 (Molecules, 2020)
# Values joined by “and” are separate entries in the source; they are usually repeats but may differ in a detail not shown here. Equal values may be shown once. Read-outs that look alike come from different tables or passages of the source.
# Tests used:
# [1] = tested on: human primary fibroblasts (cell line AB943); test: Cytotoxicity evaluation (resazurin) and selectivity index; assay type: cell-based; conditions: for SI: SI = IC50 (AB943)/IC50 (P.f. FcB1); for cytotoxicity in words: judged from SI, AB943 fibroblasts
# Protocol: Moreover, their cytotoxicity was measured, as previously reported, upon the primary human fibroblast cell line AB943, which allowed the calculation of their selectivity index (SI).
# Specifically, IC50 (μM) values for the antiplasmodial activities were determined from four independent experiments as the mean values ± standard deviations. IC50 (μM) values for the cytotoxicity activities were determined from two independent experiments as the mean values ± standard deviations.
# Cytotoxicity evaluation was performed upon human primary fibroblasts (cell line AB943). Assays were realized in 96-well plates in DMEM + Glutamax without phenol red medium (Gibco) containing 25 mM HEPES, pH 7.3, 10% fetal calf serum under a 5% CO2 atmosphere, at 37 °C. After trypsin treatment, AB943 cells were seeded at 2000 cells per well in 100 µL. After 24 h of incubation, drugs diluted in culture medium were added (100 µL per well). Drug stock solutions were prepared in dimethyl sulfoxide (DMSO). The final DMSO concentration in the cultures remained below 1%. Control cultures were constituted of cultures treated with DMSO instead of drug. The cytotoxicity assay was based on the conversion of a redo-sensitive dye (resazurin) to a fluorescent product by viable cells. […] The percentage of inhibition of cell growth was calculated by comparing the fluorescence of cells maintained in the presence of drug to that in the absence of drug.
# [2] = tested on: CQ-resistant P. falciparum FcB1/Colombia strain; test: In vitro growth inhibition of P. falciparum ([3H]-hypoxanthine incorporation); assay type: cell-based, Plasmodium falciparum; conditions: for times more active than FSM: ratio of IC50 against P. falciparum FcB1 versus FSM; for fold more active in comparison to the diester compound 17: ratio of IC50 against P. falciparum FcB1 versus 17
# Protocol: Specifically, IC50 (μM) values for the antiplasmodial activities were determined from four independent experiments as the mean values ± standard deviations. IC50 (μM) values for the cytotoxicity activities were determined from two independent experiments as the mean values ± standard deviations. IC50, SIs (ratio between IC50 (μM) of cytotoxicity/IC50 (μM) of the antiplasmodial activity), and XLogGP3 values for the FSM derivatives, hybrid, and conjugates are reported in Table 1.
# The chloroquine-resistant FcB1/Colombia strain of Plasmodium falciparum was maintained in vitro on human erythrocytes in RPMI 1640 medium supplemented by 8% (v/v) heat-inactivated human serum, at 37 °C, under an atmosphere of 3% CO2, 6% O2, and 91% N2 [45]. In vitro drug susceptibility assays were measured by [^3H]-hypoxanthine incorporation. Drug stock solutions were prepared in DMSO. Compounds were serially diluted two-fold with 100 μL of culture medium in 96-well plates. Asynchronous parasite cultures (100 μL, 1% parasitaemia and 1% final hematocrite) were then added to each well and incubated for 24 h at 37 °C prior to the addition of 0.5μCi of [^3H]-hypoxanthine (GE Healthcare, France, 1 to 5Ci·mmol/mL) per well [42]. After a further incubation of 24 h, plates were frozen and thawed. Cell lysates were then collected onto fiberglass filters and counted in a liquid scintillation spectrometer. The growth inhibition for each drug concentration was determined by comparison of the radioactivity incorporated in the treated culture with that in the control culture maintained on the same plate. The IC50 value was obtained from the drug concentration–response curve and the results were expressed as the mean values ± standard deviations determined from several independent experiments. Chloroquine and artemisinin were used as antimalarial drug controls.
# [3] = design: method as in PMID 10477522, PMID 17887769; conditions: in vitro and in a mouse model; cited from earlier work
# [4] = CQ-resistant P. falciparum FcB1/Colombia strain, mean ± SD of four independent experiments, read-out: IC50
Molecule,SI [1],"IC50 ([2]; Plasmodium falciparum, FCB1) [nM]",further results
"O=CN(O)CCCP(=O)(O)O [FSM, fosmidomycin, reference compound]",>6.6,,"fold less active than FR900098 ([2]; P. falciparum FcB1): 2; IC50 ([2]; Plasmodium falciparum, CQ-resistant P. falciparum FcB1/Colombia strain, mean ± SD of four independent experiments, read-out: IC50): 15000 ± 1700 nM"
"CCOP(=O)(CCCN(O)C(=O)CC[C@H]1O[C@@H]2O[C@]3(C)CC[C@H]4[C@H](C)CC[C@@H]([C@H]1C)C24OO3)OCC [Compound 21, Diethyl (3-(N-hydroxy-3-((3S,5aS,6R,8aS,9R,10R,12R)-3,6,9-trimethyldecahydro-12H-3, 12-epoxy[1,2]dioxepino[4,3-i]isochromen-10-yl)propanamido)propyl)phosphonate]",,28000 ± 11600,
"CCOP(=O)(CCCN(O)C(=O)CCC(=O)Nc1ccc(Cc2ccc(NC(=O)OC(C)(C)C)cc2)cc1)OCC [Compound 29, Tert-butyl(4-(4-(4-((3-(diethoxyphosphoryl)propyl)(hydroxy)amino)-4-oxobutanamido)benzyl)phenyl) carbamate]",1.7,22700 ± 1900,cytotoxicity in words [1]: cytotoxic
"CCOP(=O)(CCCN(O)C(=O)CCC(=O)NCc1ccccc1)OCC [Compound 30, Diethyl (3-(4-(benzylamino)-N-hydroxy-4-oxobutanamido)propyl) phosphonate]",,> 100000,
"CCN(CC)CCCC(C)Nc1ccnc2cc(Cl)ccc12 (stereo not drawn) [CQ, Chloroquine, reference compound]",,72 ± 7.4,
"CCOP(=O)(CCCN(O)C(=O)CCC(=O)N(Cc1ccccc1)Cc1ccccc1)OCC [Compound 28, Diethyl (3-(4-(dibenzylamino)-N-hydroxy-4-oxobutanamido)propyl)phosphonate]",,38700 ± 10000,
"CCOP(=O)(CCCN(O)C(=O)CCC(=O)N(O)CCCP(=O)(OCC)OCC)OCC [Compound 18, Tetraethyl-((succinylbis(hydroxyazanediyl))bis (propane-3,1-diyl))bis(phosphonate)]",,> 100000,
"CCOP(=O)(CCCN(O)C(=O)CCC(=O)NC(c1ccccc1)c1ccccc1)OCC [Compound 31, Diethyl(3-(4-(benzhydrylamino)-N-hydroxy-4-oxobutanamido)propyl)phosphonate]",,44200 ± 9500,
"CCOP(=O)(CCCNc1ccccc1N)OCC [Compound 34, Diethyl (3-((2-aminophenyl)amino)propyl)phosphonate]",3.7,,"cytotoxicity in words [1]: cytotoxic; IC50 [2, 4]: 8200 ± 2700 nM"
"CC(=O)N(O)CCCP(=O)(O)O [FR900098, reference compound]",>14.2,7000,activity relative to FSM [3]: about twice as active as FSM
"CCOP(=O)(CCCN(O)C(=O)CCC(=O)N1CCNCC1)OCC [Compound 33, 4-(4-((3-(Diethoxyphosphoryl)propyl)(hydroxy)amino)-4-oxobutanoyl)piperazin-1-ium 2,2,2-trifluoroacetate]",,> 100000,
"CCOP(=O)(CCCN(O)C(=O)CCC(=O)Nc1ccccc1N)OCC [Compound 27, Diethyl(3-(4-((2-aminophenyl)amino)-N-hydroxy-4-oxobutanamido)propyl) phosphonate]",,81000 ± 2800,
CCOP(=O)(CCCN(O)C(C)=O)OCC [Compound 17],,,"IC50 [2, 4]: > 100000 nM"
"Diethyl(3-(N-hydroxy-4-oxo-4-((4-(3-((3S,5aS,6R,8aS,9R,10R,12R)-3,6,9-trimethyldecahydro-12H-3,12-epoxy[1,2]dioxepino[4,3-i]isochromen-10-yl)propanamido)butyl)(3-(3-((3S,5aS,6R,8aS,9R,10R,12R)-3,6,9-trimethyldecahydro-12H-3,12-epoxy[1,2]dioxepino[4,3-i]isochromen-10-yl)propanamido)propyl)amino) butanamido)propyl)phosphonate [Compound 22]",94 and 94.1,,"IC50 [2, 4]: 360 ± 90 nM; times more active than FSM [2]: 23–41"
"CCOP(=O)(CCCN(O)C(=O)CCC(=O)N1CCN(c2ccnc3cc(Cl)ccc23)CC1)OCC [Compound 19, Diethyl (3-(4-(4-(7-chloroquinolin-4-yl)piperazin-1-yl)-N-hydroxy-4-oxobutanamido)propyl) phosphonate]",23.9,2700 ± 500,fold more active in comparison to the diester compound 17 [2]: 25–40; times more active than FSM [2]: 3.5–5.5
"Nc1ccccc1NCCCP(=O)(O)O [Compound 35, (3-((2-Aminophenyl)amino)propyl)phosphonic acid]",,> 100000,
"CCOP(=O)(CCCN(O)C(=O)CCC(=O)N1CCN(C)CC1)OCC [Compound 32, Diethyl (3-(N-hydroxy-4-(4-methylpiperazin-1-yl)-4-oxobutanamido)propyl) phosphonate]",,> 100000,
"CCOP(=O)(CCCN(O)C(=O)CCC(=O)NNC(=O)OC(C)(C)C)OCC [Compound 26, Tert-butyl 2-(4-((3-(diethoxyphosphoryl)propyl)(hydroxy)amino)-4-oxobutanoyl) hydrazine-1-carboxylate]",,86000 ± 1400,
"CCOP(=O)(CCCN(O)C(=O)CCC(=O)NCCNc1ccnc2cc(Cl)ccc12)OCC.O=C(O)C(F)(F)F [Compound 20, 7-Chloro-N-(2-(4-((3-(diethoxyphosphoryl)propyl)(hydroxy)amino)-4oxobutanamido)ethyl)quinolin-4-aminium 2,2,2-trifluoroacetate]",23.7,4200 ± 900,fold more active in comparison to the diester compound 17 [2]: 25–40; times more active than FSM [2]: 3.5–5.5
"C[C@@H]1CC[C@H]2[C@@H](C)C(=O)O[C@@H]3O[C@@]4(C)CC[C@@H]1[C@]32OO4 [ART, artemisinin, reference compound]",,,"IC50 ([2]; Plasmodium falciparum, CQ-resistant P. falciparum FcB1/Colombia strain, control drugs, unit (nM), read-out: IC50): 55 ± 13.6 nM"
"Diethyl(3-(4-(bis(4-(3-((3S,5aS,6R,8aS,9R,10R,12R)-3,6,9-trimethyldecahydro-12H-3,12-epoxy[1,2]dioxepino[4,3-i]isochromen-10-yl)propanamido)butyl)amino)-N-hydroxy-4-oxobutanamido)propyl)phosphonate [Compound 23]",34,,"IC50 [2, 4]: 650 ± 260 nM; times more active than FSM [2]: 23–41"
